What was measured:
Settings in all cases: 48 h
SEM cells [1] = test: cell viability relative to DMSO control; higher = less cytotoxic
In short: (§1)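 NOMO1, SEM and P12-Ichikawa leukemia cells spent at least four passages adapting to each medium before use. They were seeded at 500 cells/well (NOMO1, SEM) or 1000 cells/well (P12-Ichikawa) in 5 μl in 1536-well plates and pin-dosed with library compounds in DMSO at 11 threefold steps from 47 μM down to 0.79 nM. After 48 h at 37°C, CellTiter-Glo One luminescence was read. Viability is reported as a percentage of the DMSO wells on each plate, with cell-free wells as background.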

P12-Ichikawa [2] = test: as above
In short: as §1

NOMO1 [3] = test: as above
In short: as §1

SEM cells [4] = test: AUC of viability dose-response curve (% viability x log10 dose units); higher = less sensitive
In short: (§2)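 Viability of medium-adapted leukemia cells was measured by CellTiter-Glo One luminescence after 48 h at 37°C with library compounds in DMSO. Doses were 11 threefold steps from 47 μM to 0.79 nM, in 1536-well plates at 500 or 1000 cells/well. Signals were normalised per plate to DMSO and cell-free wells and fitted with a four-parameter log-logistic model on log10 dose. Area under the curve was integrated by trapezoidal rule, with curves exceeding full viability scaled and failed quality-control curves removed.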

P12-Ichikawa [5] = test: as above
In short: as §2

NOMO1 [6] = test: as above
In short: as §2

CC1OC(OC/2=C(/OC3=C(C(=CC(=C3)O)O)C2=O)C4=CC=C(O)C=C4)C(O)C(OC(C)=O)C1OC(C)=O (stereo not drawn)
cell viability [%]
Settings	NOMO1 [3]	P12-Ichikawa [2]	SEM cells [1]
HPLM + 10% dialyzed FBS, 0.000781 µM	119	112	117
HPLM + 10% dialyzed FBS, 0.00234 µM	109	118	120
HPLM + 10% dialyzed FBS, 0.00702 µM	137	111	116
HPLM + 10% dialyzed FBS, 0.0211 µM	130	116	113
HPLM + 10% dialyzed FBS, 0.0632 µM	111	113	105
HPLM + 10% dialyzed FBS, 0.19 µM	110	108	112
HPLM + 10% dialyzed FBS, 0.569 µM	112	108	106
HPLM + 10% dialyzed FBS, 1.71 µM	112	107	113
HPLM + 10% dialyzed FBS, 5.12 µM	120	101	106
HPLM + 10% dialyzed FBS, 15.4 µM	101	103	102
HPLM + 10% dialyzed FBS, 46.1 µM	78.9	100	77.7
RPMI 5 mM glucose + 10% FBS, 0.000781 µM	120	108	–
RPMI 5 mM glucose + 10% FBS, 0.00234 µM	116	114	–
RPMI 5 mM glucose + 10% FBS, 0.00702 µM	110	115	–
RPMI 5 mM glucose + 10% FBS, 0.0211 µM	100	112	–
RPMI 5 mM glucose + 10% FBS, 0.0632 µM	117	120	–
RPMI 5 mM glucose + 10% FBS, 0.19 µM	111	117	–
RPMI 5 mM glucose + 10% FBS, 0.569 µM	96.8	103	–
RPMI 5 mM glucose + 10% FBS, 1.71 µM	96.9	108	–
RPMI 5 mM glucose + 10% FBS, 5.12 µM	103	105	–
RPMI 5 mM glucose + 10% FBS, 15.4 µM	94.3	96.4	–
RPMI 5 mM glucose + 10% FBS, 46.1 µM	68.9	103	–
RPMI 5 mM glucose + 10% dialyzed FBS, 0.000781 µM	96.7	114	100
RPMI 5 mM glucose + 10% dialyzed FBS, 0.00234 µM	108	119	101
RPMI 5 mM glucose + 10% dialyzed FBS, 0.00702 µM	109	117	114
RPMI 5 mM glucose + 10% dialyzed FBS, 0.0211 µM	111	115	102
RPMI 5 mM glucose + 10% dialyzed FBS, 0.0632 µM	112	116	110
RPMI 5 mM glucose + 10% dialyzed FBS, 0.19 µM	114	114	103
RPMI 5 mM glucose + 10% dialyzed FBS, 0.569 µM	118	109	98.1
RPMI 5 mM glucose + 10% dialyzed FBS, 1.71 µM	104	114	95.5
RPMI 5 mM glucose + 10% dialyzed FBS, 5.12 µM	111	111	108
RPMI 5 mM glucose + 10% dialyzed FBS, 15.4 µM	99.2	103	90.5
RPMI 5 mM glucose + 10% dialyzed FBS, 46.1 µM	77.2	104	77.1

AUC of viability dose-response curve
Settings	NOMO1 [6]	P12-Ichikawa [5]	SEM cells [4]
HPLM + 10% dialyzed FBS	440	454	463
RPMI 5 mM glucose + 10% FBS	430	455	367
RPMI 5 mM glucose + 10% dialyzed FBS	466	460	465

COc1ccc2cccc(CCNC(C)=O)c2c1
cell viability [%]
Settings	NOMO1 [3]	P12-Ichikawa [2]	SEM cells [1]
HPLM + 10% dialyzed FBS, 0.000781 µM	111	104	105
HPLM + 10% dialyzed FBS, 0.00234 µM	114	100	104
HPLM + 10% dialyzed FBS, 0.00702 µM	95.7	102	107
HPLM + 10% dialyzed FBS, 0.0211 µM	123	102	111
HPLM + 10% dialyzed FBS, 0.0632 µM	104	96	109
HPLM + 10% dialyzed FBS, 0.19 µM	87.9	103	97.6
HPLM + 10% dialyzed FBS, 0.569 µM	122	99	112
HPLM + 10% dialyzed FBS, 1.71 µM	104	104	114
HPLM + 10% dialyzed FBS, 5.12 µM	101	102	109
HPLM + 10% dialyzed FBS, 15.4 µM	89.7	92.7	49.2
HPLM + 10% dialyzed FBS, 46.1 µM	85	89.6	105
RPMI 5 mM glucose + 10% FBS, 0.000781 µM	90.8	98.3	110
RPMI 5 mM glucose + 10% FBS, 0.00234 µM	91.6	104	83.4
RPMI 5 mM glucose + 10% FBS, 0.00702 µM	86.5	105	107
RPMI 5 mM glucose + 10% FBS, 0.0211 µM	92.9	109	100
RPMI 5 mM glucose + 10% FBS, 0.0632 µM	84.7	103	105
RPMI 5 mM glucose + 10% FBS, 0.19 µM	84.6	107	90
RPMI 5 mM glucose + 10% FBS, 0.569 µM	85.6	104	109
RPMI 5 mM glucose + 10% FBS, 1.71 µM	94.7	101	106
RPMI 5 mM glucose + 10% FBS, 5.12 µM	83.1	99.6	110
RPMI 5 mM glucose + 10% FBS, 15.4 µM	83.2	97.8	40.7
RPMI 5 mM glucose + 10% FBS, 46.1 µM	80.1	95.9	95
RPMI 5 mM glucose + 10% dialyzed FBS, 0.000781 µM	94.7	97.6	107
RPMI 5 mM glucose + 10% dialyzed FBS, 0.00234 µM	96.6	103	106
RPMI 5 mM glucose + 10% dialyzed FBS, 0.00702 µM	105	110	101
RPMI 5 mM glucose + 10% dialyzed FBS, 0.0211 µM	82.5	96.8	111
RPMI 5 mM glucose + 10% dialyzed FBS, 0.0632 µM	91.3	104	120
RPMI 5 mM glucose + 10% dialyzed FBS, 0.19 µM	97.4	104	94.8
RPMI 5 mM glucose + 10% dialyzed FBS, 0.569 µM	97.2	97.4	94.7
RPMI 5 mM glucose + 10% dialyzed FBS, 1.71 µM	90.2	93.8	104
RPMI 5 mM glucose + 10% dialyzed FBS, 5.12 µM	86	94.3	124
RPMI 5 mM glucose + 10% dialyzed FBS, 15.4 µM	93.7	98.2	37.4
RPMI 5 mM glucose + 10% dialyzed FBS, 46.1 µM	79.6	89.6	101

AUC of viability dose-response curve
Settings	NOMO1 [6]	P12-Ichikawa [5]	SEM cells [4]
HPLM + 10% dialyzed FBS	434	470	451
RPMI 5 mM glucose + 10% FBS	415	468	453
RPMI 5 mM glucose + 10% dialyzed FBS	440	460	452

CCc1cc(/C(C)=N/OCc2ccc(C3CCCCC3)c(C(F)(F)F)c2)ccc1CN1CC(C(=O)O)C1
cell viability [%]
Settings	NOMO1 [3]	P12-Ichikawa [2]	SEM cells [1]
HPLM + 10% dialyzed FBS, 0.000781 µM	111	111	104
HPLM + 10% dialyzed FBS, 0.00234 µM	133	110	117
HPLM + 10% dialyzed FBS, 0.00702 µM	106	112	112
HPLM + 10% dialyzed FBS, 0.0211 µM	108	119	109
HPLM + 10% dialyzed FBS, 0.0632 µM	129	120	104
HPLM + 10% dialyzed FBS, 0.19 µM	109	114	115
HPLM + 10% dialyzed FBS, 0.569 µM	108	121	120
HPLM + 10% dialyzed FBS, 1.71 µM	79.1	108	117
HPLM + 10% dialyzed FBS, 5.12 µM	66.4	105	99.8
HPLM + 10% dialyzed FBS, 15.4 µM	31.8	30.3	87.1
HPLM + 10% dialyzed FBS, 46.1 µM	40.1	18.9	82.9
RPMI 5 mM glucose + 10% FBS, 0.000781 µM	110	109	92
RPMI 5 mM glucose + 10% FBS, 0.00234 µM	113	99	108
RPMI 5 mM glucose + 10% FBS, 0.00702 µM	104	105	109
RPMI 5 mM glucose + 10% FBS, 0.0211 µM	115	108	109
RPMI 5 mM glucose + 10% FBS, 0.0632 µM	135	110	105
RPMI 5 mM glucose + 10% FBS, 0.19 µM	115	106	109
RPMI 5 mM glucose + 10% FBS, 0.569 µM	120	108	106
RPMI 5 mM glucose + 10% FBS, 1.71 µM	107	107	99.9
RPMI 5 mM glucose + 10% FBS, 5.12 µM	107	94.4	96.2
RPMI 5 mM glucose + 10% FBS, 15.4 µM	26.8	22.5	82.2
RPMI 5 mM glucose + 10% FBS, 46.1 µM	20.9	18.7	70.2
RPMI 5 mM glucose + 10% dialyzed FBS, 0.000781 µM	99	111	114
RPMI 5 mM glucose + 10% dialyzed FBS, 0.00234 µM	116	111	116
RPMI 5 mM glucose + 10% dialyzed FBS, 0.00702 µM	117	116	125
RPMI 5 mM glucose + 10% dialyzed FBS, 0.0211 µM	112	109	123
RPMI 5 mM glucose + 10% dialyzed FBS, 0.0632 µM	119	109	126
RPMI 5 mM glucose + 10% dialyzed FBS, 0.19 µM	114	116	124
RPMI 5 mM glucose + 10% dialyzed FBS, 0.569 µM	115	114	137
RPMI 5 mM glucose + 10% dialyzed FBS, 1.71 µM	103	106	132
RPMI 5 mM glucose + 10% dialyzed FBS, 5.12 µM	103	100	118
RPMI 5 mM glucose + 10% dialyzed FBS, 15.4 µM	26.6	20.7	106
RPMI 5 mM glucose + 10% dialyzed FBS, 46.1 µM	29	18.6	94

AUC of viability dose-response curve
Settings	NOMO1 [6]	P12-Ichikawa [5]	SEM cells [4]
HPLM + 10% dialyzed FBS	385	418	455
RPMI 5 mM glucose + 10% FBS	418	414	452
RPMI 5 mM glucose + 10% dialyzed FBS	420	414	463
